Molecules are shown by their SMILES.

Experiment [1] relates to L3 Drosophila larvae fat body. Put plainly: LysoTracker Red staining of Drosophila L3 larvae fat body. It is filed as in vivo. As for the experimental part: Drosophila culture and drug feeding. Flies were raised at 25° C. on standard corn meal medium supplemented with dry yeast. Cory B and rapamycin were initially dissolved in DMSO then diluted in water to desired concentrations. The drug containing water was added into instant Drosophila food and mixed thoroughly. As the control, the same amount of DMSO was also mixed with instant Drosophila food. For the treatment, L3 larvae or adult flies were transferred to the drug-containing medium and incubated for indicated time.
Lysotracker staining and quantitative analysis of autophagic structures. L3 larvae were dissected using fine forceps under a dissecting microscope and inverted so that fat bodies were exposed to the incubating solution. The larvae carcasses were stained with 100 nM of LysoTracker red in PBS for 5 minutes at room temperature. After the incubation, the larvae carcasses were rinsed once in PBS and transferred to a glass slide with a drop of mounting medium on it. […] Fat body lobes were then covered with a cover slide and immediately observed under a standard fluorescence microscope. Quantitative analysis of lysotracker-positive spots was performed according to previous described protocol with minor revision. […] The numbers of lysotracker-positive spots were quantified from at least 20 randomly selected fluorescent image fields (4700 μm^2/field). […]

A further experiment relates to Tg2567 APP mice. Put plainly: Tg2567 APP mice treated intraperitoneally. It is filed as in vivo. To be noted: 20 mg/kg/d intraperitoneally, three months. On the procedure: N2a Swedish APP cells are incubated with different concentration of Cory and Cory B in the presence or absence of CQ and 3MA. […] Tg2567 APP mice, 3 months old JNPL P301 Tau mice and WT mice intraperitoneally are administrated with 20 mg/kg/d CoryB.

Take `CC[C@@H]1CN2CC[C@]3(C(=O)Nc4ccccc43)C2C[C@@H]1C(=COC)C(=O)OC` (stereo partly drawn) [Cory B, Corynoxine B]: the “LysoTracker Red-positive puncta in fat bodies” value in experiment [1] (fed 0.2 mg/ml, 6 hours) is given as “induces formation of LysoTracker Red-positive puncta”. Moreover, in experiment [1] (with autophagy inhibitor 3-MA), the “LysoTracker Red puncta formation in presence of 3-MA” value is “blocked”. Also, the Fl-APP/CTF result in the experiment on Tg2567 APP mice is “significantly decrease”.

The record behind these values is patent publication US9604987B2, “Synthesis of autophagy inducing compound and the uses thereof” (Hong Kong Baptist University, priority 2012, dated 2017).
